Measured values published in patent US6608086B2, “Dihydropyridines and new uses thereof” (Synaptic Pharmaceutical Corporation, priority 1993, dated 2003).
Read-outs that look alike come from different tables or passages of the source.

Key:
[1] = biological target: T1, α1B Human Adrenergic Receptor (Homo sapiens, UniProt P35368); test: Radioligand binding, [3H]prazosin, cloned human α1B adrenergic receptor; conditions: cloned human α1B receptor, LM(tk-) cell membranes
T1 construct: The entire coding region of α1B (1563 bp); expressed in transfected cells
T1 sequence (P35368 1-520): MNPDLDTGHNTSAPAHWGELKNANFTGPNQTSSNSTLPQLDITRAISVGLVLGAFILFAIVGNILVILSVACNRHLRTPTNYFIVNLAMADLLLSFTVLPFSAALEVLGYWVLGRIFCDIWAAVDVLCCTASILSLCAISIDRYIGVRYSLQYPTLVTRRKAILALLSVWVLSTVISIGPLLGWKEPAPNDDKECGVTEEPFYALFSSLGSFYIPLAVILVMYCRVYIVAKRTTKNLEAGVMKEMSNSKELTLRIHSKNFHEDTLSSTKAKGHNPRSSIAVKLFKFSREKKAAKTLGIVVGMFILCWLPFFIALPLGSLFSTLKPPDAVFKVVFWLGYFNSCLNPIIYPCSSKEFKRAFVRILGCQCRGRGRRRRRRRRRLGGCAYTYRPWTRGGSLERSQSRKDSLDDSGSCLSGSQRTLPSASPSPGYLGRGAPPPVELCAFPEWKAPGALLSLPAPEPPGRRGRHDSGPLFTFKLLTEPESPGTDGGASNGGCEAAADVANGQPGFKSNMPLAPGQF
How it was run: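 [3H]prazosin (0.5 nM) binding was run for 20 min at 37° C in pH 7.5 Tris/MgCl2/ascorbate buffer on membranes of LM(tk−) cells stably expressing the cloned receptor. Filtration through GF/B ended the reaction; 10 μM phentolamine gave nonspecific binding.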

α2A receptor = biological target: T2, α2A receptor (Homo sapiens, UniProt P08913); test: Competition binding, [3H]rauwolscine, human α2A receptor
T2 construct: host or cells: LM(tk-) cells, line L-α2A
T2 sequence (P08913 1-465): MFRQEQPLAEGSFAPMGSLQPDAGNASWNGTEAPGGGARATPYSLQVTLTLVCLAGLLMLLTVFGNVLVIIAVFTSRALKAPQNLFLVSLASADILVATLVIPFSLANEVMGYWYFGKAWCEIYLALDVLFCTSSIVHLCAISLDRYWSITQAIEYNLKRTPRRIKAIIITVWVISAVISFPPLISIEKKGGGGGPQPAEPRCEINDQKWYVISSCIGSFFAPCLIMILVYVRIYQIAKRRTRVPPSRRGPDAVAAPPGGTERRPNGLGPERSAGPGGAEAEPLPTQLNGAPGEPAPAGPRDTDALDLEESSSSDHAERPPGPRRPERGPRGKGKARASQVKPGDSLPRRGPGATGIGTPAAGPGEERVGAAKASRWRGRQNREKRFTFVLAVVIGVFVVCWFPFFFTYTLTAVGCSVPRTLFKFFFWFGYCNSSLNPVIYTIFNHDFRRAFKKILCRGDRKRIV
How it was run: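 Lysates of LM(tk−) cells stably expressing each α2 subtype were suspended in 25 mM glycylglycine buffer (pH 7.6 at room temperature). Equilibrium competition binding used 0.5 nM [3H]rauwolscine, with nonspecific binding defined by 10 μM phentolamine; bound radioligand was separated by GF/B filtration.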

[2] = biological target: T3, α1A Human Adrenergic Receptor (Homo sapiens, UniProt P25100); test: Radioligand binding, [3H]prazosin, cloned human α1A adrenergic receptor
T3 construct: The entire coding region of α1A (1719 bp); expressed in transfected cells
T3 sequence (P25100 1-572): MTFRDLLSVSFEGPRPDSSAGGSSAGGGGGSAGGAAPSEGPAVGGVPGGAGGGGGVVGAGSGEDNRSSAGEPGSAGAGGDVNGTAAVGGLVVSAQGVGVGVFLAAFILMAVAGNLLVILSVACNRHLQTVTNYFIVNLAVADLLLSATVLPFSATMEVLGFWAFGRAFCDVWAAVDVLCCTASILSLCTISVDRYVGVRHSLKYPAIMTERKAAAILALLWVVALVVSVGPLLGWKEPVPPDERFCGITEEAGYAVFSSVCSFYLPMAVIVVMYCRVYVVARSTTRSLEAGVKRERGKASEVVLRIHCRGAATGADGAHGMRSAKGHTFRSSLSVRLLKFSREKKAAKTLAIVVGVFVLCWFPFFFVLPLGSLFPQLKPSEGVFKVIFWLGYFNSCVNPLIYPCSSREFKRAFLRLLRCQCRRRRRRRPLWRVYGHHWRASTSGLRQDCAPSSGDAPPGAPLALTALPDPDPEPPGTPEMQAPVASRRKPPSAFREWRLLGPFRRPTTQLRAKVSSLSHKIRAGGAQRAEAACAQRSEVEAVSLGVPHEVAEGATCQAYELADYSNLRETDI
How it was run: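 In pH 7.5 Tris/MgCl2/ascorbic acid buffer, α1A-expressing LM(tk−) membranes are exposed to 0.5 nM [3H]prazosin (37° C, 20 min). Excess phentolamine (10 μM) marks nonspecific binding before rapid filtration.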

[3] = [3H]rauwolscine, human α2A receptor, LM(tk-) cells, read-out: PKi alpha-2 2a (converted)
[4] = PKi alpha-1 1a, [3H]prazosin, cloned human α1A receptor, LM(tk-) cell membranes
[5] = read-out: PKi alpha-1 1b (converted)
[6] = [3H]prazosin, cloned human α1A receptor, LM(tk-) cell membranes, read-out: PKi alpha-1 1a (converted)

SMILES	Ki ([1]; PKi alpha-1 1b) [nM]	Ki (α2A receptor; [3]) [nM]	Ki [2, 4] [nM]	Ki [1, 5] [nM]	Ki [2, 6] [nM]	further results
CC(=O)C1=C(C)NC(COCCN)=C(C(=O)NCCCN2CCC(c3ccccc3)(c3ccccc3)CC2)C1c1ccc2c(c1)OCO2 (stereo not drawn) [Example 239, 5-Acetyl-2-((2-aminoethyl)oxy)methyl-1,4-dihydro-6-methyl-4-(3,4-methylenedioxy)phenyl-3-(N-(3-(4,4-dipheylpiperidin-1-yl)propyl))carboxamidopyridine]	257	832	275			
CCOC(=O)C1(c2ccccc2)CCN(CCCNC(=O)C2=C(COC)NC(CC)=C(C(=O)O)C2c2ccc([N+](=O)[O-])cc2)CC1 (stereo not drawn) [Example 240, 3-(N-3-(4-Ethoxycarbonyl-4-phenylpiperidin-1-yl)propyl)carboxamido-6-ethyl-1,4-dihydro-2-(methyloxy)methyl-4-(4-nitro)phenylpyridine-5-carboxylic Acid]				4470		Ki (α2A receptor): 18600 nM; Ki ([2]; PKi alpha-1 1a): 10000 nM
COC(=O)C1(c2ccccc2)CCN(CCCNC(=O)C2=C(COCCCN)NC(C)=C(C(C)=O)C2c2ccc([N+](=O)[O-])cc2)CC1 (stereo not drawn) [Example 241, 5-Acetyl-2-((3-aminopropyl)oxy)methyl-1,4-dihydro-3-(N-(3-(4-methoxycarbonyl-4-phenylpiperidin-1-yl)propyl))carboxamido-6-methyl-4-(4-nitro)phenylpyridine]				490		Ki (α2A receptor): 1580 nM; Ki ([2]; PKi alpha-1 1a): 1450 nM
CC(=O)C1=C(C)NC(COCCN)=C(C(=O)NCCCN2CCC(c3ccccc3)(c3ccccc3)CC2)C1c1ccc(F)cc1 (stereo not drawn) [Example 242, 5-Acetyl-2-((2-aminoethyl)oxy)methyl-4-(4-fluoro)phenyl-1,4-dihydro-6-methyl-3-(N-(3-(4,4-diphenylpiperidin-1-yl)propyl))carboxamidopyridine]	83.2	1410	224			
CCOC(=O)C1(c2ccccc2)CCN(CCCNC(=O)C2=C(COCC(F)(F)F)NC(C)=C(C(N)=O)C2c2ccc([N+](=O)[O-])cc2)CC1 (stereo not drawn) [Example 243, 5-Carboxamido-3-(N-(3-(4-ethoxycarbonyl-4-phenylpiperidin-1yl)propyl))carboxamido-2-((2,2,2-trifluoroethyl)oxy)methyl-1,4dihydro-6-methyl-4-(4-nitro)phenylpyridine]		2240		759	1510	
CCOC(=O)C1(c2ccccc2)CCN(CCCNC(=O)C2=C(COCCN)NC(C)=C(C(C)=O)C2c2ccc3c(c2)OCO3)CC1 (stereo not drawn) [Example 244, 5-Acetyl-2-((2-aminoethyl)oxy)methyl-3-(N-(3-(4-ethoxycarbonyl-4-phenylpiperidin-1-yl)propyl)) carboxamido-1,4-dihydro-6-methyl-4-(3,4-methylenedioxy) phenylpyridine]		1020		513	851	
COC(=O)C1(c2ccccc2)CCN(CCCNC(=O)C2=C(COCCN)NC(C)=C(C(C)=O)C2c2ccc(F)cc2)CC1 (stereo not drawn) [Example 245, 5-Acetyl-2-((2-aminoethyl)oxy)methyl-4-(4-fluoro)phenyl-1,4-dihydro-3-(N-3-(4-methoxycarbonyl-4-phenylpiperidin-1-yl)propyl)carboxamido-6-methylpyridine]		1050		355	977	
CCC1=C(C(=O)OCCO)C(c2ccc([N+](=O)[O-])cc2)C(C(=O)NCCCN2CCC(c3ccccc3)(c3ccccc3)CC2)=C(COC)N1 (stereo not drawn) [Example 246]	174	676	316			
CCC1=C(C(=O)NCCOC)C(c2ccc([N+](=O)[O-])cc2)C(C(=O)NCCCN2CCC(c3ccccc3)(c3ccccc3)CC2)=C(COC)N1 (stereo not drawn) [Example 247, 6-Ethyl-1,4-dihydro-5-N-((2-methoxy)ethyl)carboxamido-2-(methyloxy)methyl-4-(4-nitro)phenyl-3-(N-(3-(4,4-diphenylpiperidin-1-yl)propyl)) carboxamidopyridine]	912	589	977			
CCC1=C(C(=O)NN2CCOCC2)C(c2ccc([N+](=O)[O-])cc2)C(C(=O)NCCCN2CCC(c3ccccc3)(c3ccccc3)CC2)=C(COC)N1 (stereo not drawn) [Example 248, 6-Ethyl-1,4-dihydro-2-((methyl)oxy)methyl-5-N-(morpholin-4yl)carboxamido-4-(4-nitro)phenyl-3-(N-(3-(4,4-diphenylpiperidin-1-yl)propyl))carboxamidopyridine]		1000		1510	2950	
COC(=O)C1=C(C)NC(C)=C(C(=O)NCCCN2CCC(c3ccccc3)(c3ccccc3)CC2)C1c1cccc([N+](=O)[O-])c1 (stereo not drawn) [Example 249, 1,4-Dihydro-3-methoxycarbonyl-2,6-dimethyl-4-(3-nitrophenyl)-5-(N-(3-(4,4-diphenylpiperidin-1-yl)propyl)carboxamido)-pyridine]						PKi alpha-1 1b [1]: 6.63; PKi alpha-2 2a (α2A receptor): 5.81; PKi alpha-1 1a [2]: 6.37
COC(=O)C1=C(C)NC(C)=C(C(=O)NCCCN2CCC(c3ccccc3)CC2)C1c1ccc2c(c1)OCO2 (stereo not drawn) [Example 250]		123		69.2	603	
